The source of these data is patent US20240109900A1, “AZABICYCLIC SHP2 INHIBITORS” (IRBM S.P.A., priority 2021, published 2024).

Like-named read-outs stand apart in the source and are kept apart here. Some results are limits rather than exact numbers.

Assay [1] concerns the target SHP-2 enzyme (Met1-Leu525) (Homo sapiens (Human), UniProt Q06124). The experiment in a line: SHP2 inhibition enzymatic assay. The class given is biochemical. As to conditions: 0.5 nM SHP-2 activated by 500 nM IRS1 peptide, 75 μM DiFMUP substrate; read-out: SHP2wt-IC50. The method in brief: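 Compounds were preincubated 30 min with 0.5 nM SHP-2 (Met1-Leu525) plus 500 nM IRS1 activating peptide (pH 7.2 HEPES, 5 mM DTT), then 75 μM DiFMUP substrate reacted 30 min at room temperature. After bpV quench, DiFMUP fluorescence gave % inhibition; four-parameter logistic fit yielded IC50.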

Assay [2] has as its system ERK phosphorylation in KYSE-520 cells. The experiment in a line: Phospho-ERK cellular assay. In kind it is cell-based. As to conditions: KYSE-520 cells, 2 h at 37° C., phospho-ERK1/2 (Thr202/Tyr204) TR-FRET, read-out: PERK IC50. The procedure, abridged:
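TR-FRET read-out of ERK1/2 Thr202/Tyr204 phosphorylation was taken after overnight antibody incubation at room temperature. Before that, KYSE-520 cells were treated 2 h at 37 °C with compound dilutions and lysed 30 min. Percent inhibition relative to vehicle and cell-free wells was fitted four-parametrically to give IC50.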
A general note: In TR-FRET formats the signal depends on donor and acceptor labels being close together.

SHP-2 enzyme (Met1-Leu525), sequence (Q06124 1-525): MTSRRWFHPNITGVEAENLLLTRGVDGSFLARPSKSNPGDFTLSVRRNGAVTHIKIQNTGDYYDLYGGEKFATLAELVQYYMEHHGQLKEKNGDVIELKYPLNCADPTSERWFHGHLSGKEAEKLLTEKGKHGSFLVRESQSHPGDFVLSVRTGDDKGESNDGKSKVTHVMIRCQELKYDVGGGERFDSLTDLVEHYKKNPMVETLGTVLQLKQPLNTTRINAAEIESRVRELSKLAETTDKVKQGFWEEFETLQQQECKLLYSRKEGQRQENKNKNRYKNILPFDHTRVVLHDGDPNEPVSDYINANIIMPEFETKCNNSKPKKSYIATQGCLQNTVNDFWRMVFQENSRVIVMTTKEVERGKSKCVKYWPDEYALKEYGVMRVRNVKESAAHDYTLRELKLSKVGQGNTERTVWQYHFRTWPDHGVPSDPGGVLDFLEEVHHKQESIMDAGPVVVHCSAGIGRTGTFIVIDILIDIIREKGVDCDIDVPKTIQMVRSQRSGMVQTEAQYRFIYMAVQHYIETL

`Cc1nc(N2CC[C@@H]3[C@H](C2)[C@@]3(CN)c2cc(F)ccc2F)cc(=O)n1-c1cccc(Cl)c1Cl` [Example 411, 6-((1S,6R,7R)-7-(aminomethyl)-7-(2,5-difluorophenyl)-3-azabicyclo[4.1.0]heptan-3-yl)-3-(2,3-dichlorophenyl)-2-methylpyrimidin-4(3H)-one]: the figures for the concentration for half-maximal inhibition (IC50) in assay [1] and in assay [2] were above 3 µM and above 5 µM, respectively.

`CS(=O)(=O)c1ccc(-c2n[nH]c3nc(N4CC[C@@H]5[C@H](C4)[C@@]5(CN)c4ccccc4F)cnc23)c2cccnc12` [Example 521, ((1S,6R,7R)-7-(2-fluorophenyl)-3-(3-(8-(methylsulfonyl)quinolin-5-yl)-1H-pyrazolo[3,4-b]pyrazin-6-yl)-3-azabicyclo[4.1.0]heptan-7-yl)methanamine]: the half-inhibitory concentration (IC50) (as a rule, the point on the concentration scale where inhibition reaches its midpoint) in assay [1] is below 0.5 µM; in assay [2] (Homo sapiens, KYSE-520, 2 h), below 1 µM.

On to `NC[C@]1(c2ccccc2F)[C@@H]2CCN(c3cnc4c(-c5cc(F)c(O)c(F)c5)n[nH]c4n3)C[C@@H]21` [Example 322, 4-(6-((1S,6R,7R)-7-(aminomethyl)-7-(2-fluorophenyl)-3-azabicyclo[4.1.0]heptan-3-yl)-1H-pyrazolo[3,4-b]pyrazin-3-yl)-2,6-difluorophenol], for which the IC50 is below 0.5 µM in assay [1] and below 1 µM in assay [2] (Homo sapiens, KYSE-520, 2 h).

In the case of `Cc1conc1C1(CN)C2CCN(c3cnc4c(-c5ccc6nn(C)cc6c5Cl)n[nH]c4n3)CC21` (stereo not shown) [Example 15, (3-(3-(4-chloro-2-methyl-2H-indazol-5-yl)-1H-pyrazolo[3,4-b]pyrazin-6-yl)-7-(4-methylisoxazol-3-yl)-3-azabicyclo[4.1.0]heptan-7-yl)methanamine], the half-inhibitory concentration (IC50) in assay [1] is below 0.5 µM; in assay [2] (Homo sapiens, KYSE-520, 2 h) it was below 1 µM.

As for `Cc1nccc(Sc2cnc(N3CC[C@@H]4[C@H](C3)[C@@]4(CN)c3cc(F)ccc3F)cn2)c1F` [Example 424, ((1S,6R,7R)-7-(2,5-difluorophenyl)-3-(5-((3-fluoro-2-methylpyridin-4-yl)thio)pyrazin-2-yl)-3-azabicyclo[4.1.0]heptan-7-yl)methanamine], the IC50 was below 0.5 µM in assay [1] and below 1 µM in assay [2] (Homo sapiens, KYSE-520, 2 h).

For `Cc1csc([C@@]2(CN)[C@@H]3CCN(c4cnc5c(-c6cccc(Cl)c6Cl)n[nH]c5n4)C[C@@H]32)n1` [Example 78, ((1S,6R,7S)-3-(3-(2,3-dichlorophenyl)-1H-pyrazolo[3,4-b]pyrazin-6-yl)-7-(4-methylthiazol-2-yl)-3-azabicyclo[4.1.0]heptan-7-yl)methanamine], the IC50 in assay [1] is below 0.5 µM; in assay [2] (Homo sapiens, KYSE-520, 2 h), below 1 µM.

Consider `NC[C@]1(c2ccccc2F)[C@@H]2CCN(c3cnc4c(-c5ccc(-c6noc(O)n6)cc5Cl)n[nH]c4n3)C[C@@H]21` [Example 295, 3-(4-(6-((1S,6R,7R)-7-(aminomethyl)-7-(2-fluorophenyl)-3-azabicyclo[4.1.0]heptan-3-yl)-1H-pyrazolo[3,4-b]pyrazin-3-yl)-3-chlorophenyl)-1,2,4-oxadiazol-5-ol], for which the half-maximal inhibitory concentration (IC50) in assay [1] was below 0.5 µM; in assay [2] (Homo sapiens, KYSE-520, 2 h) it was below 1 µM.

As for `COc1nccc(-c2n[nH]c3nc(N4C[C@@H]5[C@H](C4)C5(CN)c4nc(C)cs4)cnc23)c1Cl` (stereo partly shown) [Example 476], the concentration for half-maximal inhibition (IC50) was below 0.5 µM in assay [1] and below 1 µM in assay [2].

Turning to `Cn1cc2c(Cl)c(-c3n[nH]c4nc(N5C[C@@H]6[C@H](C5)[C@@]6(CN)c5ccccn5)cnc34)ccc2n1` [Example 491, ((1R,5S,6r)-3-(3-(4-chloro-2-methyl-2H-indazol-5-yl)-1H-pyrazolo[3,4-b]pyrazin-6-yl)-6-(pyridin-2-yl)-3-azabicyclo[3.1.0]hexan-6-yl)methanamine], the IC50 is below 0.5 µM in assay [1] and below 1 µM in assay [2] (Homo sapiens, KYSE-520, 2 h).

Turning to `Cc1csc([C@@]2(CN)[C@@H]3CCN(c4cnc5c(-c6ccn7nc(C)cc7c6Cl)n[nH]c5n4)C[C@@H]32)n1` [Example 440, ((1S,6R,7S)-3-(3-(4-chloro-2-methylpyrazolo[1,5-a]pyridin-5-yl)-1H-pyrazolo[3,4-b]pyrazin-6-yl)-7-(4-methylthiazol-2-yl)-3-azabicyclo[4.1.0]heptan-7-yl)methanamine], the IC50 is below 0.5 µM in assay [1] and below 1 µM in assay [2] (Homo sapiens, KYSE-520, 2 h).

As for `NC[C@]1(c2ccccc2F)[C@@H]2CCN(c3cnc4c(-c5ccc6nn(C7CC7)cc6c5Cl)n[nH]c4n3)C[C@@H]21` [Example 420], the IC50 in assay [1] was below 0.5 µM; in assay [2] it was below 1 µM.

For `Cc1nc(-c2ccc(-c3n[nH]c4nc(N5CC[C@@H]6[C@H](C5)[C@@]6(CN)c5ccccc5F)cnc34)c(Cl)c2)no1` [Example 377, ((1S,6R,7R)-3-(3-(2-chloro-4-(5-methyl-1,2,4-oxadiazol-3-yl)phenyl)-1H-pyrazolo[3,4-b]pyrazin-6-yl)-7-(2-fluorophenyl)-3-azabicyclo[4.1.0]heptan-7-yl)methanamine], the concentration for half-maximal inhibition (IC50) is below 0.5 µM in assay [1] and below 1 µM in assay [2] (Homo sapiens, KYSE-520, 2 h).

In the case of `NC[C@]1(c2ccccc2F)[C@@H]2CCN(c3cnc4c(-c5ccc6ccncc6c5)n[nH]c4n3)C[C@@H]21` [Example 248, ((1S,6R,7R)-7-(2-fluorophenyl)-3-(3-(isoquinolin-7-yl)-1H-pyrazolo[3,4-b]pyrazin-6-yl)-3-azabicyclo[4.1.0]heptan-7-yl)methanamine], the IC50 in assay [1] is below 0.5 µM; in assay [2] (Homo sapiens, KYSE-520, 2 h), below 1 µM.

On to `NCC1(c2ccccc2F)C2CCN(c3cnc4c(-c5cccc6ccsc56)n[nH]c4n3)CC21` (stereo not shown) [Example 4, (3-(3-(benzo[b]thiophen-7-yl)-1H-pyrazolo[3,4-b]pyrazin-6-yl)-7-(2-fluorophenyl)-3-azabicyclo[4.1.0]heptan-7-yl)methanamine], for which the IC50 was below 0.5 µM in assay [1] and 1 to 5 µM in assay [2] (Homo sapiens, KYSE-520, 2 h).

In the case of `CNc1nccc(-c2n[nH]c3nc(N4CCC5C(C4)C5(CN)c4cc(C)on4)cnc23)c1Cl` (stereo not shown) [Example 17, 4-(6-(7-(aminomethyl)-7-(5-methylisoxazol-3-yl)-3-azabicyclo[4.1.0]heptan-3-yl)-1H-pyrazolo[3,4-b]pyrazin-3-yl)-3-chloro-N-methylpyridin-2-amine], the half-inhibitory concentration (IC50) in assay [1] is below 0.5 µM; in assay [2] (Homo sapiens, KYSE-520, 2 h), below 1 µM.

With `Cc1csc([C@@]2(CN)[C@@H]3CN(c4cc(=O)n(-c5cccc(Cl)c5Cl)c(C)n4)C[C@@H]32)n1` [Example 433, 6-((1R,5S,6r)-6-(aminomethyl)-6-(4-methylthiazol-2-yl)-3-azabicyclo[3.1.0]hexan-3-yl)-3-(2,3-dichlorophenyl)-2-methylpyrimidin-4(3H)-one], the IC50 in assay [1] is below 0.5 µM; in assay [2] (Homo sapiens, KYSE-520, 2 h), below 1 µM.

On to `NC[C@]1(c2ccccc2F)[C@@H]2CCN(c3cnc4c(-c5cc(F)cc(F)c5)n[nH]c4n3)C[C@@H]21` [Example 330, ((1S,6R,7R)-3-(3-(3,5-difluorophenyl)-1H-pyrazolo[3,4-b]pyrazin-6-yl)-7-(2-fluorophenyl)-3-azabicyclo[4.1.0]heptan-7-yl)methanamine], for which the IC50 was below 0.5 µM in assay [1] and below 1 µM in assay [2] (Homo sapiens, KYSE-520, 2 h).

Consider `COc1ccc(-c2n[nH]c3nc(N4CCC5C(C4)C5(CN)c4cc(C)on4)cnc23)c2cccnc12` (stereo not shown) [Example 22, (3-(3-(8-methoxyquinolin-5-yl)-1H-pyrazolo[3,4-b]pyrazin-6-yl)-7-(5-methylisoxazol-3-yl)-3-azabicyclo[4.1.0]heptan-7-yl)methanamine], for which the concentration for half-maximal inhibition (IC50) in assay [1] is below 0.5 µM; in assay [2] (Homo sapiens, KYSE-520, 2 h), below 1 µM.

Turning to `NC[C@]1(c2ccccc2F)[C@@H]2CCN(c3cnc4c(-c5cc(F)c6ncccc6c5)n[nH]c4n3)C[C@@H]21` [Example 174, ((1S,6R,7R)-7-(2-fluorophenyl)-3-(3-(8-fluoroquinolin-6-yl)-1H-pyrazolo[3,4-b]pyrazin-6-yl)-3-azabicyclo[4.1.0]heptan-7-yl)methanamine], the half-maximal inhibitory concentration (IC50) in assay [1] is below 0.5 µM; in assay [2] (Homo sapiens, KYSE-520, 2 h), below 1 µM.

In the case of `Cc1c(-c2n[nH]c3nc(N4CC[C@@H]5[C@H](C4)[C@@]5(CN)c4ccccc4F)cnc23)ccc2nccnc12` [Example 222, ((1S,6R,7R)-7-(2-fluorophenyl)-3-(3-(5-methylquinoxalin-6-yl)-1H-pyrazolo[3,4-b]pyrazin-6-yl)-3-azabicyclo[4.1.0]heptan-7-yl)methanamine], the IC50 in assay [1] is below 0.5 µM; in assay [2] (Homo sapiens, KYSE-520, 2 h), below 1 µM.

`COc1cnc2ccc(-c3n[nH]c4nc(N5CC[C@@H]6[C@H](C5)[C@@]6(CN)c5cc(C)on5)cnc34)c(Cl)c2n1` [Example 112, ((1S,6R,7S)-3-(3-(5-chloro-3-methoxyquinoxalin-6-yl)-1H-pyrazolo[3,4-b]pyrazin-6-yl)-7-(5-methylisoxazol-3-yl)-3-azabicyclo[4.1.0]heptan-7-yl)methanamine]: the concentration for half-maximal inhibition (IC50) in assay [1] was below 0.5 µM; in assay [2] (Homo sapiens, KYSE-520, 2 h) it was below 1 µM.

On to `CN1C(=O)Cc2cc(-c3n[nH]c4nc(N5CC[C@@H]6[C@H](C5)[C@@]6(CN)c5ccccc5F)cnc34)ccc21` [Example 217, 5-(6-((1S,6R,7R)-7-(aminomethyl)-7-(2-fluorophenyl)-3-azabicyclo[4.1.0]heptan-3-yl)-1H-pyrazolo[3,4-b]pyrazin-3-yl)-1-methylindolin-2-one], for which the IC50 in assay [1] is below 0.5 µM; in assay [2] (Homo sapiens, KYSE-520, 2 h), below 1 µM.

In the case of `Cc1cc(C2(CN)C3CCN(c4nc5[nH]nc(Sc6ccnc(N)c6Cl)c5nc4CO)CC32)no1` (stereo not shown) [Example 57, (3-((2-amino-3-chloropyridin-4-yl)thio)-6-(7-(aminomethyl)-7-(5-methylisoxazol-3-yl)-3-azabicyclo[4.1.0]heptan-3-yl)-1H-pyrazolo[3,4-b]pyrazin-5-yl)methanol], the IC50 was below 0.5 µM in assay [1] and 1 to 5 µM in assay [2] (Homo sapiens, KYSE-520, 2 h).
